Results: US20150315218A1, “SALTS OF PRODRUGS OF PIPERAZINE AND SUBSTITUTED PIPERIDINE ANTIVIRAL AGENTS” (Bristol-Myers Squibb Company, priority 2004, published 2015)
Where “and” joins values, the source holds several entries; their conditions need not be identical. Equal entries are not always repeated. Structures can show the parent of a compound that is named as a salt.

Assays:
[1] = system: dog hepatocytes; assay: Hydrolysis of prodrug in hepatocytes (dog); assay type: in vitro ADME; details: dog hepatocytes, qualitative
Experimental: (§1) The in vitro intrinsic clearance of Ibb in hepatocytes (Clint) was calculated as follows: Clint(μL/min/million cells)=Rate/CE where Rate is the rate of metabolism in hepatocytes (pmol/min/million cells), and CE is the concentration of Ibb in the incubation. The in vitro intrinsic clearance of Icb in hepatocytes (Clint) was calculated as follows: Clint(μL/min/million cells)=Rate/CE where Rate is the rate of metabolism in hepatocytes (pmol/min/million cells), and CE is the concentration of Icb in the incubation.

[2] = Stability of prodrug in fresh EDTA blood (human); details: Human EDTA blood
Experimental: (§2) The stability of Iab was studied in fresh blood and serum from rat, dog, monkey and human (n=2). The blood was collected in vacutainers containing K2EDTA (Becton Dickinson, Franklin Lakes, N.J.). The serum was collected in vacutainers containing no anticoagulant. Iab was incubated at a starting concentration of approximately 10 μM for 60-90 min at 37° C. Serial samples were taken at the pre-determined times. Aliquots of blood samples (200 μL) were first mixed with 100 μL of water followed by 400 μL of acetonitrile. The serum samples (50 μL) were added into microtainers containing K2EDTA (Becton Dickinson, Franklin Lakes, N.J.) followed by the addition of 100 μL of acetonitrile. The supernatant was analyzed for both Iab and IVa by LC/MS/MS. The stability of Ibb was studied in fresh blood and serum from rat, dog, monkey and human (n=2). The blood was collected in vacutainers containing K2EDTA (Becton Dickinson, Franklin Lakes, N.J.). The serum was collected in vacutainers containing no anticoagulant. Ibb was incubated at a starting concentration of approximately 15 μM for 90 min at 37° C. Serial samples were taken at the pre-determined times. Aliquots of blood samples (200 μL) were first mixed with 100 μL of water followed by 400 μL of acetonitrile. The serum samples (50 μL) were added into microtainers containing K2EDTA (Becton Dickinson, Franklin Lakes, N.J.) followed by the addition of 100 μL of acetonitrile. […] The stability of Icb was studied in fresh blood and serum from rat, dog, monkey and human (n=2). The blood was collected in vacutainers containing K2EDTA (Becton Dickinson, Franklin Lakes, N.J.). The serum was collected in vacutainers containing no anticoagulant. Icb was incubated at a starting concentration of approximately 10 μM for 90 min at 37° C. Serial samples were taken at the pre-determined times. Aliquots of blood samples (200 μL) were first mixed with 100 μL of water followed by 400 μL of acetonitrile. The serum samples (50 μL) were added into microtainers containing K2EDTA (Becton Dickinson, Franklin Lakes, N.J.) followed by the addition of 100 μL of acetonitrile.

[3] = Stability (hydrolysis) of prodrug in fresh serum (human); details: Human Serum
[4] = system: monkey hepatocytes; assay: Hydrolysis of prodrug in hepatocytes (monkey); assay type: in vitro ADME; details: monkey hepatocytes, qualitative
Experimental: as §1

[5] = Stability of prodrug in fresh EDTA blood (monkey); details: Monkey EDTA blood
[6] = Stability (hydrolysis) of prodrug in fresh serum (dog); details: Dog Serum
[7] = Stability of prodrug in fresh EDTA blood (dog); details: dog blood, 37°C, 60 min (Iab) or 90 min (Ibb, Icb)
Experimental: as §2

[8] = in vitro; details: monkey, serum
Experimental: as §2

[9] = Stability of prodrug in Tris-HCl buffer
Experimental: The stability of Iab was also evaluated, as described above, in Tris-HCl buffer (0.1 M, pH 7.5). The stability of Ibb was also evaluated, as described above, in Tris-HCl buffer (0.1 M, pH 7.5). The stability of Icb was also evaluated, as described above, in Tris-HCl buffer (0.1 M, pH 7.5).

[10] = Stability (hydrolysis) of prodrug in fresh serum (rat); details: Rat Serum
[11] = Stability (hydrolysis) of prodrug in fresh serum (monkey); details: Monkey Serum
Experimental: as §2

[12] = Stability of prodrug in fresh EDTA blood (rat); details: for Iab / IVa Formed: Rat EDTA blood
[13] = in vitro; details: dog, serum

SMILES: COc1cnc(OC)c2c1c(C(=O)C(=O)N1CCN(C(=O)c3ccccc3)CC1)cn2COP(=O)(O)O [Iab, {3-[(4-benzoylpiperazin-1-yl)(oxo)acetyl]-4,7-dimethoxy-1H-pyrrolo[2,3-c]pyridin-1-yl}methyl dihydrogen phosphate, L-lysine salt (1:1)]
- hydrolysis in the presence of hepatocytes [1]: hydrolyzed
- Iab / IVa Formed ([2]; 0 min): 11 µM
- Iab / IVa Formed ([2]; 15 min): 11 µM
- Iab / IVa Formed ([2]; 30 min): 7.1 µM
- Iab / IVa Formed ([2]; 45 min): 9.8 µM
- Iab / IVa Formed ([2]; 60 min): 9.8 µM
- Iab / IVa Formed ([3]; 37°C, 0 min): 9.5 µM
- Iab / IVa Formed ([3]; 15 min): 9.2 µM
- Iab / IVa Formed ([3]; 30 min): 9.0 µM
- Iab / IVa Formed ([3]; 45 min): 9.6 µM
- Iab / IVa Formed ([3]; 60 min): 9.1 µM
- Iab / IVa Formed ([3]; 90 min): 9.4 µM
- hydrolysis in the presence of hepatocytes [4]: hydrolyzed
- Iab / IVa Formed ([5]; 0 min): 8.5 µM
- Iab / IVa Formed ([5]; 20 min): 9.2 µM
- Iab / IVa Formed ([5]; 40 min): 9.2 µM
- Iab / IVa Formed ([5]; 60 min): 8.7 µM
- Iab / IVa Formed ([6]; 37°C, 0 min): 9.2 µM
- Iab / IVa Formed ([6]; 15 min): 9.0 µM
- Iab / IVa Formed ([6]; 30 min): 7.8 µM
- Iab / IVa Formed ([6]; 45 min): 7.8 µM
- Iab / IVa Formed ([6]; 60 min): 7.1 µM
- Iab / IVa Formed ([6]; 90 min): 6.7 µM
- conversion of prodrug to parent in blood containing EDTA [7]: approximately 6%
- half-life at 10 μM [8]: 6.08 h
- stability / conversion of prodrug to parent in Tris-HCl buffer ([9]; 37°C, 60 min (Iab) or 90 min (Ibb, Icb)): stable
- Iab / IVa Formed ([9]; Tris-HCl buffer (0.1 M, pH 7.5), 37°C, 0 min): 10 µM
- Iab / IVa Formed ([9]; Tris-HCl buffer, 20 min): 10 µM
- Iab / IVa Formed ([9]; Tris-HCl buffer, 40 min): 7.6 µM
- Iab / IVa Formed ([9]; Tris-HCl buffer, 60 min): 10 µM
- Iab / IVa Formed ([10]; 37°C, 0 min): 6.8 µM
- Iab / IVa Formed ([10]; 15 min): 5.8 µM
- Iab / IVa Formed ([10]; 30 min): 5.4 µM
- Iab / IVa Formed ([10]; 45 min): 4.9 µM
- Iab / IVa Formed ([10]; 60 min): 4.3 µM
- Iab / IVa Formed ([10]; 90 min): 3.3 µM
- Iab / IVa Formed ([11]; 37°C, 0 min): 9.0 µM
- Iab / IVa Formed ([11]; 15 min): 7.3 µM
- Iab / IVa Formed ([11]; 30 min): 6.8 µM
- Iab / IVa Formed ([11]; 45 min): 6.5 µM
- Iab / IVa Formed ([11]; 60 min): 6.3 µM
- Iab / IVa Formed ([11]; 90 min): 6.3 µM
- Iab / IVa Formed ([12]; 37°C, 0 min): 8.0 µM
- Iab / IVa Formed ([12]; 20 min): 8.8 µM
- Iab / IVa Formed ([12]; 40 min): 10 µM
- Iab / IVa Formed ([12]; 60 min): 10 µM
- conversion of prodrug to parent in blood containing EDTA ([12]; rat blood, 37°C, 60 min (Iab) or 90 min (Ibb, Icb)): < 2% and 1.2%
- half-life at 10 μM [13]: 3.03 h
